In ChEMBL document CHEMBL1201862, “PubChem BioAssay data set” (2004):
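Assay format: 96-well plates, 48-hour exposure. Abbreviation: GI50, concentration required for 50% inhibition of growth.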 Active and inactive are the calls of the source. Cut-off read from the data, not from the text of the source: active = GI50 up to about 1.1 µM and inactive = higher.

What was measured:
Test in all cases: growth of human tumour cells (NCI), 48 h
MDA-MB-231 = test system: MDA-MB-231
UACC-62 = test system: UACC-62
HT-29 = test system: HT-29
RXF 393 = test system: RXF 393
HCC 2998 = test system: HCC 2998
ACHN = test system: ACHN
SW-620 = test system: SW-620
BT-549 = test system: BT-549
MOLT-4 = test system: MOLT-4
A549 = test system: A549
CAKI-1 = test system: CAKI-1
786-0 = test system: 786-0
EKVX = test system: EKVX
Malme-3M = test system: Malme-3M
SF-539 = test system: SF-539
K562 = test system: K562
RPMI-8226 = test system: RPMI-8226
SK-OV-3 = test system: SK-OV-3
NCI/ADR-RES = test system: NCI/ADR-RES
MDA-MB-435 = test system: MDA-MB-435

Measured: GI50

N#Cc1c(N)nc(S)c(C#N)c1-c1ccccc1
inactive: MDA-MB-231 > 100 µM | UACC-62 > 100 µM | HT-29 > 100 µM | RXF 393 > 100 µM | HCC 2998 > 100 µM | ACHN > 100 µM | SW-620 > 100 µM | BT-549 54 µM | MOLT-4 > 100 µM | A549 > 100 µM | CAKI-1 88.1 µM | 786-0 > 100 µM | EKVX > 100 µM | Malme-3M > 100 µM | SF-539 > 100 µM | K562 > 100 µM | RPMI-8226 > 100 µM

Cc1ccc(S(=O)(=O)NNC(=O)Nc2ccc(Cl)cc2)cc1
inactive: MDA-MB-231 > 100 µM | UACC-62 > 100 µM | HT-29 > 100 µM | RXF 393 > 100 µM | HCC 2998 > 100 µM | SK-OV-3 > 100 µM | ACHN 6.22 µM | SW-620 > 100 µM | NCI/ADR-RES > 100 µM | MOLT-4 > 100 µM | A549 > 100 µM | CAKI-1 > 100 µM | 786-0 > 100 µM | EKVX > 100 µM | MDA-MB-435 > 100 µM | Malme-3M > 100 µM | SF-539 54 µM | K562 4.26 µM | RPMI-8226 > 100 µM

Oc1ccc2ccccc2c1NCn1nc(CCCCCCCCc2nn(CNc3c(O)ccc4ccccc34)c(=S)o2)oc1=S
inactive: MDA-MB-231 > 100 µM | UACC-62 > 100 µM | HT-29 25.5 µM | HCC 2998 > 100 µM | SK-OV-3 > 100 µM | ACHN > 100 µM | SW-620 > 100 µM | NCI/ADR-RES > 100 µM | BT-549 > 100 µM | MOLT-4 > 100 µM | A549 > 100 µM | CAKI-1 > 100 µM | 786-0 > 100 µM | EKVX > 100 µM | MDA-MB-435 38.7 µM | Malme-3M > 100 µM | K562 > 100 µM | RPMI-8226 39.6 µM

CC(=O)c1c(-c2ccccc2)c(-c2ccc(OCCN(C)C)cc2)n2ccccc12
inactive: MDA-MB-231 16.9 µM | UACC-62 15.7 µM | HT-29 3.44 µM | HCC 2998 14.6 µM | SK-OV-3 19.2 µM | ACHN 15.8 µM | SW-620 17.9 µM | NCI/ADR-RES 14.5 µM | BT-549 14.9 µM | MOLT-4 15 µM | A549 21.2 µM | CAKI-1 18.5 µM | 786-0 18.3 µM | EKVX 17.5 µM | MDA-MB-435 17.7 µM | Malme-3M 11.9 µM | SF-539 13.9 µM | K562 13.4 µM | RPMI-8226 20.8 µM

CCOC(=O)/C(=N\Nc1ccc(-n2c(C)nc3ccccc3c2=O)cc1)C(C)=O
inactive: MDA-MB-231 > 100 µM | UACC-62 29.8 µM | HT-29 53.6 µM | SK-OV-3 74 µM | ACHN 32.4 µM | SW-620 61.5 µM | NCI/ADR-RES 18.1 µM | BT-549 33.3 µM | MOLT-4 13.5 µM | A549 49.9 µM | CAKI-1 > 100 µM | 786-0 > 100 µM | EKVX 25.6 µM | MDA-MB-435 17.5 µM | SF-539 51.8 µM | K562 32.6 µM | RPMI-8226 11.6 µM

CC(=O)c1c(-c2ccc(Cl)cc2)c(C#N)c(=S)n(C2OC(CO)C(O)C(O)C2O)c1C (stereo not drawn)
inactive: MDA-MB-231 37 µM | UACC-62 22.3 µM | HT-29 30.1 µM | RXF 393 98.2 µM | HCC 2998 > 100 µM | SK-OV-3 82.8 µM | ACHN 42.3 µM | NCI/ADR-RES > 100 µM | MOLT-4 21.6 µM | A549 71 µM | 786-0 63.2 µM | MDA-MB-435 37.8 µM | Malme-3M 67 µM | SF-539 46.7 µM | K562 32.4 µM

CCc1ccc2nccc(NCCCN(C)C)c2c1[N+](=O)[O-]
inactive: MDA-MB-231 56.1 µM | UACC-62 > 100 µM | HT-29 33.4 µM | RXF 393 71.8 µM | HCC 2998 > 100 µM | SK-OV-3 > 100 µM | ACHN > 100 µM | SW-620 > 100 µM | NCI/ADR-RES > 100 µM | MOLT-4 > 100 µM | A549 > 100 µM | CAKI-1 46.6 µM | 786-0 > 100 µM | EKVX > 100 µM | MDA-MB-435 62.2 µM | Malme-3M > 100 µM | SF-539 > 10 µM | K562 42.8 µM | RPMI-8226 > 100 µM

CSc1nc(C)cc(N(C)c2ccccc2)n1
inactive: MDA-MB-231 34.8 µM | UACC-62 35.3 µM | HT-29 15.1 µM | RXF 393 31 µM | HCC 2998 > 100 µM | SK-OV-3 37.6 µM | ACHN 58.6 µM | SW-620 54.5 µM | NCI/ADR-RES 25.2 µM | MOLT-4 29.7 µM | A549 29 µM | CAKI-1 33 µM | 786-0 38.5 µM | EKVX 37.8 µM | MDA-MB-435 22.5 µM | Malme-3M 63.7 µM | SF-539 28 µM | K562 44 µM | RPMI-8226 > 100 µM

Cc1nnc(N/N=C2/C(=O)Nc3ccccc32)nc1O
inactive: MDA-MB-231 > 100 µM | UACC-62 > 100 µM | HT-29 > 100 µM | SK-OV-3 > 100 µM | ACHN > 100 µM | SW-620 > 100 µM | NCI/ADR-RES > 100 µM | BT-549 > 100 µM | MOLT-4 > 100 µM | A549 > 100 µM | 786-0 > 100 µM | EKVX > 100 µM | MDA-MB-435 > 100 µM | Malme-3M 72.8 µM | SF-539 > 100 µM | K562 > 100 µM | RPMI-8226 > 100 µM

Cc1cc(=O)oc2c(C)c3oc(CBr)cc3cc12
inactive: MDA-MB-231 29.4 µM | UACC-62 18.5 µM | HT-29 27.4 µM | HCC 2998 15.8 µM | SK-OV-3 27.4 µM | ACHN 15.8 µM | SW-620 13.5 µM | NCI/ADR-RES 19.4 µM | BT-549 15.3 µM | MOLT-4 14.3 µM | A549 17.3 µM | CAKI-1 17.5 µM | 786-0 16.3 µM | EKVX 26.4 µM | MDA-MB-435 18.2 µM | Malme-3M 19.2 µM | SF-539 20.9 µM | K562 19.9 µM | RPMI-8226 12.2 µM

COC1=CCC2=C(CCN(C(=O)C3CC3)C2Cc2ccc(OC)c(O)c2)C1 (stereo not drawn)
inactive: MDA-MB-231 63.2 µM | UACC-62 48.8 µM | HT-29 45.9 µM | RXF 393 13.5 µM | HCC 2998 35.1 µM | SK-OV-3 > 100 µM | ACHN > 100 µM | SW-620 29 µM | NCI/ADR-RES 19 µM | MOLT-4 8.67 µM | A549 63.4 µM | CAKI-1 83.4 µM | 786-0 92.9 µM | EKVX 47.1 µM | MDA-MB-435 23.9 µM | Malme-3M 88.9 µM | SF-539 67 µM | K562 25.8 µM | RPMI-8226 34.2 µM
